The text below walks through data of patent US20210253518A1, “KINASE INHIBITOR” (NISSAN CHEMICAL CORPORATION, priority 2018, published 2021).

The subject of experiment [1] is YAP-regulated genes. In words: DNA microarray gene expression in SKOV3 cells. Type of experiment: cell-based, human. The settings on record: 10 μM. The procedure:
According to the method of patent document (WO 2014/017513), a composition of McCoy's 5a medium (manufactured by Sigma-Aldrich) containing 0.015% (w/v) deacylated gellan gum (KELCOGEL CG-LA, manufactured by Sansho Co., Ltd.), 30 ng/mL human HB-EGF (manufactured by PEPROTECH), and 15% (v/v) FBS was prepared. Human ovarian cancer cell line SKOV3 cultured according to the protocol recommended by DS Pharma Biomedical Co., Ltd. was suspended in the medium and seeded on a 6 well plate (manufactured by Corning Incorporated, #3471) at 1,000,000 cells/3.3 mL/well. Successively, k-1:B-1 dissolved in DMSO was added to the cell suspension at a final concentration of 10 μM. After further culturing in a CO2 incubator at 37° C. for 6 or 24 hr, 11 mL of phosphate buffered saline (PBS, manufactured by Sigma-Aldrich Japan) was added to the cell culture medium and the cells were precipitated by a centrifugation treatment (400 G, 3 min). The supernatant was removed, the cells were suspended in PBS (10 mL), and further subjected to a centrifugation treatment (400 G, 5 min) to give cell pellets. Successively, total RNA (ribonucleic acid) was isolated from the obtained cells by using RNAeasy Mini Kit (manufactured by Qiagen). DNA microarray of this RNA was performed by HumanGene 2.0ST Array (manufactured by Affymetrix), and changes in the human gene expression due to the addition of the specific compound were comprehensively analyzed (gene analysis contract service of Kurabo Industries Ltd. was used, product number; GA0312).

For experiment [2], the target named is T1, LATS2 (Homo sapiens, UniProt Q9NRM7).
T1 construct: purchased Carna Biosciences
T1 sequence (Q9NRM7 553-1088 limits assumed): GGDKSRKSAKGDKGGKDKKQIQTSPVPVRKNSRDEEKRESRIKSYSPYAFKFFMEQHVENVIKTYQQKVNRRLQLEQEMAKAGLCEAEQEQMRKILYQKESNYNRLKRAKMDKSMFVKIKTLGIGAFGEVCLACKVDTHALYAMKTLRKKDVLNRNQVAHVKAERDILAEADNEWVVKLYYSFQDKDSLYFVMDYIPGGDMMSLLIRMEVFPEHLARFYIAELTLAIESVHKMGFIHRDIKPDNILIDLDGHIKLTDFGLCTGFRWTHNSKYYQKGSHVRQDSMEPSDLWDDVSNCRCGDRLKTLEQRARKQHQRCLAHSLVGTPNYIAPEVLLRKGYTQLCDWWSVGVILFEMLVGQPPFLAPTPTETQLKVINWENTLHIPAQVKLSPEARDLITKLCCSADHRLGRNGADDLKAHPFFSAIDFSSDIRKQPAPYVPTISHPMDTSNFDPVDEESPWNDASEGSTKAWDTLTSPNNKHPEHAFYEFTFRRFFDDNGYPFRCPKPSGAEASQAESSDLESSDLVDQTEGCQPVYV
In words: Kinase Assay method (Fluorospark Kinase/ADP Multi-Assay Kit). It is filed as biochemical. The procedure: For compound k-1:B-1 (racemate), GA-002A, GA-002B, GA-005A and GA-005B, inhibitory activity evaluation (calculation of IC50) was performed on LATS1 and LATS2 (manufactured by Carna Biosciences). The activity was measured using the Kinase Assay method described below. The compounds were added such that the test concentration of k-1:B-1 (racemate), GA-002A, GA-002B, GA-005A and GA-005B was in 8 steps (10 μM, 1 μM, 100 nM, […], 10 nM, 3 nM, 1 nM, 0.3 nM) from the final concentration of 10 μM to 0.3 nM.
As the analysis method of the data, the mean signal of the control well containing reaction components other than the evaluation compound was set to 0% inhibition, the mean signal without enzyme addition was set to 100% inhibition, and the inhibition rate was calculated from the mean signal of 2 wells of each test substance test. IC50 value was calculated using EXSUS (version 7.1.6, manufactured by CAC EXICARE Corporation).
2 μL of a compound of the present invention solution at 2.5-fold concentration, 1 μL of substrate at 5-fold concentration (SGKtide: NH2—CKKRNRRLSVA-COOH, manufactured by SignalChem), ATP (manufactured by Sigma-Aldrich), MgCl2 (manufactured by FUJIFILM Wako Pure Chemical Corporation) solution (final concentration 10 μM, 400 μM or 5 mM), and 2 μL of kinase solution at 2.5-fold concentration (final concentration of LATS1 or LATS2 5 μg/mL), each prepared with assay buffer (20 mM HEPES, 0.01% Triton X-100, 2 mM DTT, pH 7.5), were mixed in the wells of a polypropylene 384-well plate (manufactured by Greiner Bio-One, #784900) and reacted at room temperature for 5 hr. Successively, 5 μL detection solution (Fluorospark (registered trade mark)Kinase/ADP Multi-Assay Kit; manufactured by FUJIFILM Wako Pure Chemical Corporation) was added, and the mixture was reacted at room temperature 30 min. Successively, 5 μL of a reaction quenching liquid (Fluorospark (registered trade mark) Kinase/ADP Multi-Assay Kit; manufactured by FUJIFILM Wako Pure Chemical Corporation) was added to discontinue the reaction. Thereafter, the ADP concentration of the reaction solution was quantified by EnSpire (manufactured by PerkinElmer) to detect the kinase reaction.

Regarding `CC/C(=N\NC(=O)C(C)Nc1ccccc1)c1ccc(O)c(C)c1O` (centres unmarked) [k-1:B-1], in experiment [1] (6 hr later), the “AMOTL2 expression rate when no addition is 1” value was 6.92, the “ANKRD1 expression rate when no addition is 1” value turned out to be 35.3, the “BIRC2 expression rate when no addition is 1” value worked out at 1.27 and the “CCND1 expression rate when no addition is 1” value is 1.63. In experiment [1] (6 hr later), the “CTGF expression rate when no addition is 1” value was 21.4, the “CYR61 expression rate when no addition is 1” value is 29.6 and the “TGFB2 expression rate when no addition is 1” value came out at 3.63. Also, in experiment [1] (24 hr later), the “AMOTL2 expression rate when no addition is 1” value amounted to 7.89, the “ANKRD1 expression rate when no addition is 1” value came to 72.1, the “BIRC2 expression rate when no addition is 1” value came out at 1.44 and the “CCND1 expression rate when no addition is 1” value came to 2.01. Further, in experiment [1] (24 hr later), the “CTGF expression rate when no addition is 1” value turned out to be 23.2, the “CYR61 expression rate when no addition is 1” value was determined as 26.9 and the “TGFB2 expression rate when no addition is 1” value stood at 9.84. In addition, the inhibition at 0.1 µM in experiment [2] (100 nM, read-out: LARS2 inhibitory rate (%)) was 75%. Moreover, in experiment [2] (1000 nM, read-out: LARS2 inhibitory rate (%)), the inhibition at 1 µM is 96%. The compound also registered a concentration for half-maximal inhibition (IC50) in experiment [2] (Kinase Assay method, 8 steps 10 μM to 0.3 nM) of 30.8 nM.

The term IC50 denotes the midpoint of a concentration-inhibition curve. High values mean a need for much substance, low ones inhibition by little substance.
